Patent publication US6403647B1, “Pulsed administration of compositions for the treatment of blood disorders” (priority 1996, dated 2002)

Tested on: γ-globin expression
Assay: γ-globin mRNA by RNase protection in erythroid cell cultures of normal individuals
Format: cell-based, human
Conditions: for x increase in % s / x increase: over ChFCS
Method: Fetal globin production was determined in erythroid progenitor cells cultured in the presence or absence of test compositions. Erythroid cells were purified from blood obtained from a normal individual . […] Erythroid cell cultures were established with the following conditions: IMDM methylcellulose media, erythropoietin (3 U/ml), the human subjects' mononuclear cells, 30% charcoal-absorbed fetal calf serum, and the test compounds at varying micromolar concentrations.
Compounds were tested for their ability to induce expression of fetal globin expression in erythroid cell cultures established from the peripheral blood of normal individuals. Colonies were harvested and assayed for globin mRNA following 14 days of culture. Each compound was tested in duplicate cultures from 2-4 individual human subjects. Globin expression was quantitated by RNase protection assay for % gamma globin as a fraction of total non-alpha globin (% gamma/gamma+beta globin mRNA).

O=C(CCCCCCC(=O)NO)NO [suberoyl bis hydroxamic acid, Suberoyl bis hydroxamic acid]
x increase in % s (0.5 μM, group 1 (99-3a, 99-3b)): 1.6 x | γ/γ + β (0.5 μM, group 1, subject 99-3a): 13.54% | γ/γ + β (0.5 μM, group 1, subject 99-3b): 11.55% | γ/γ + β mean (0.5 μM, group 1, subjects 99-3a, 99-3b): 12.55% | x increase in % s (0.5 μM, group 2 (99-4, 99-5)): 0.9 x | γ/γ + β (0.5 μM, group 2, subject 99-4): 6.25% | γ/γ + β (0.5 μM, group 2, subject 99-5): 6.42% | γ/γ + β mean (0.5 μM, group 2, subjects 99-4, 99-5): 6.34% | x increase in % s (1 μM, group 1 (99-3a, 99-3b)): 1.3 x | γ/γ + β (1 μM, group 1, subject 99-3a): 10.99% | γ/γ + β (1 μM, group 1, subject 99-3b): 9.19% | γ/γ + β mean (1 μM, group 1, subjects 99-3a, 99-3b): 10.09% | x increase in % s (1 μM, group 2 (99-4, 99-5)): 1.2 x | γ/γ + β (1 μM, group 2, subject 99-4): 8.46% | γ/γ + β mean (1 μM, group 2, subject 99-4 only): 8.46% | x increase in % s (1 μM, group 3 (99-6, 99-7, 99-10)): 1.5 x | γ/γ + β (1 μM, group 3, subject 99-6): 5.41% | γ/γ + β (1 μM, group 3, subject 99-7): 10.76% | γ/γ + β (1 μM, group 3, subject 99-10): 6.92% | γ/γ + β mean (1 μM, group 3, subjects 99-6, 99-7, 99-10): 7.70% | x increase in % s (2 μM, group 1 (99-3a, 99-3b)): 2.9 x | γ/γ + β (2 μM, group 1, subject 99-3a): 21.36% | γ/γ + β (2 μM, group 1, subject 99-3b): 23.63% | γ/γ + β mean (2 μM, group 1, subjects 99-3a, 99-3b): 22.50% | x increase in % s (2 μM, group 2 (99-4, 99-5)): 1.5 x | γ/γ + β (2 μM, group 2, subject 99-4): 9.92% | γ/γ + β (2 μM, group 2, subject 99-5): 10.65% | γ/γ + β mean (2 μM, group 2, subjects 99-4, 99-5): 10.29% | x increase in % s (2 μM, group 3 (99-6, 99-7, 99-10)): 2.1 x | γ/γ + β (2 μM, group 3, subject 99-6): 6.65% | γ/γ + β (2 μM, group 3, subject 99-7): 15.75% | γ/γ + β (2 μM, group 3, subject 99-10): 10.00% | γ/γ + β mean (2 μM, group 3, subjects 99-6, 99-7, 99-10): 10.80% | x increase in % s (3 μM, group 1 (99-3a, 99-3b)): 3.2 x | γ/γ + β (3 μM, group 1, subject 99-3a): 24.90% | γ/γ + β (3 μM, group 1, subject 99-3b): 23.72% | γ/γ + β mean (3 μM, group 1, subjects 99-3a, 99-3b): 24.31% | x increase in % s (3 μM, group 2 (99-4, 99-5)): 2.6 x | γ/γ + β (3 μM, group 2, subject 99-4): 17.99% | γ/γ + β (3 μM, group 2, subject 99-5): 17.89% | γ/γ + β mean (3 μM, group 2, subjects 99-4, 99-5): 17.94% | x increase in % s (4 μM, group 1 (99-3a, 99-3b)): 6.4 x | γ/γ + β (4 μM, group 1, subject 99-3a): 48.57% | γ/γ + β (4 μM, group 1, subject 99-3b): 50.66% | γ/γ + β mean (4 μM, group 1, subjects 99-3a, 99-3b): 49.62% | x increase in % s (4 μM, group 2 (99-4, 99-5)): 3.4 x | γ/γ + β (4 μM, group 2, subject 99-4): 24.10% | γ/γ + β mean (4 μM, group 2, subject 99-4 only): 24.10% | x increase in % s (4 μM, group 3 (99-6, 99-7, 99-10)): 3.9 x | γ/γ + β (4 μM, group 3, subject 99-6): 13.33% | γ/γ + β (4 μM, group 3, subject 99-7): 30.45% | γ/γ + β (4 μM, group 3, subject 99-10): 15.73% | γ/γ + β mean (4 μM, group 3, subjects 99-6, 99-7, 99-10): 19.84% | x increase in % s (4 μM, group 4 (99-10, 00-1, 00-3)): 1.7 x | γ/γ + β (4 μM, group 4, subject 00-1): 4.82% | γ/γ + β (4 μM, group 4, subject 00-3): 5.01% | γ/γ + β (4 μM, group 4, subject 99-10): 11.38% | γ/γ + β mean (4 μM, group 4, subjects 99-10, 00-1, 00-3): 7.07% | x increase in % s (6 μM, group 3 (99-6, 99-7, 99-10)): 5.5 x | γ/γ + β (6 μM, group 3, subject 99-6): 22.97% | γ/γ + β (6 μM, group 3, subject 99-7): 31.51% | γ/γ + β (6 μM, group 3, subject 99-10): 29.15% | γ/γ + β mean (6 μM, group 3, subjects 99-6, 99-7, 99-10): 27.88% | x increase in % s (6 μM, group 4 (99-10, 00-1, 00-3)): 2.7 x | γ/γ + β (6 μM, group 4, subject 00-1): 9.46% | γ/γ + β (6 μM, group 4, subject 00-3): 8.89% | γ/γ + β (6 μM, group 4, subject 99-10): 16.34% | γ/γ + β mean (6 μM, group 4, subjects 99-10, 00-1, 00-3): 11.56% | x increase in % s (8 μM, group 3 (99-6, 99-7, 99-10)): 7.4 x | γ/γ + β (8 μM, group 3, subject 99-6): 31.99% | γ/γ + β (8 μM, group 3, subject 99-7): 44.02% | γ/γ + β (8 μM, group 3, subject 99-10): 35.73% | γ/γ + β mean (8 μM, group 3, subjects 99-6, 99-7, 99-10): 37.25% | x increase in % s (8 μM, group 4 (99-10, 00-1, 00-3)): 4.4 x | γ/γ + β (8 μM, group 4, subject 00-1): 12.88% | γ/γ + β (8 μM, group 4, subject 00-3): 21.68% | γ/γ + β (8 μM, group 4, subject 99-10): 21.37% | γ/γ + β mean (8 μM, group 4, subjects 99-10, 00-1, 00-3): 18.64% | x increase in % s (10 μM, group 4 (99-10, 00-1, 00-3)): 7.3 x | γ/γ + β (10 μM, group 4, subject 00-1): 27.89% | γ/γ + β (10 μM, group 4, subject 00-3): 31.25% | γ/γ + β (10 μM, group 4, subject 99-10): 35.06% | γ/γ + β mean (10 μM, group 4, subjects 99-10, 00-1, 00-3): 31.40% | x increase in % s (12 μM, group 4 (99-10, 00-1, 00-3)): 10.8 x | γ/γ + β (12 μM, group 4, subject 00-3): 45.69% | γ/γ + β (12 μM, group 4, subject 99-10): 46.94% | γ/γ + β mean (12 μM, group 4, subjects 99-10, 00-3): 46.32%

CCCC(=O)NO [butyryl hydroxamate]
x increase (6 μM, group 1 (99-4, 99-5)): 1.0 x | γ/γ + β (6 μM, group 1, subject 99-4): 2.29% | γ/γ + β (6 μM, group 1, subject 99-5): 3.40% | γ/γ + β mean (6 μM, group 1, subjects 99-4, 99-5): 2.85% | x increase (10 μM, group 1 (99-4, 99-5)): 1.3 x | γ/γ + β (10 μM, group 1, subject 99-4): 3.44% | γ/γ + β (10 μM, group 1, subject 99-5): 4.06% | γ/γ + β mean (10 μM, group 1, subjects 99-4, 99-5): 3.75% | x increase (20 μM, group 1 (99-4, 99-5)): 1.9 x | γ/γ + β (20 μM, group 1, subject 99-4): 4.43% | γ/γ + β (20 μM, group 1, subject 99-5): 6.06% | γ/γ + β mean (20 μM, group 1, subjects 99-4, 99-5): 6.25% | x increase (20 μM, group 2 (99-6, 99-7)): 1.0 x | γ/γ + β (20 μM, group 2, subject 99-6): 8.65% | γ/γ + β (20 μM, group 2, subject 99-7): 12.49% | γ/γ + β mean (20 μM, group 2, subjects 99-6, 99-7): 10.57% | x increase (30 μM, group 1 (99-4, 99-5)): 1.7 x | γ/γ + β (30 μM, group 1, subject 99-4): 4.12% | γ/γ + β (30 μM, group 1, subject 99-5): 5.35% | γ/γ + β mean (30 μM, group 1, subjects 99-4, 99-5): 4.74% | x increase (40 μM, group 1 (99-4, 99-5)): 2.8 x | γ/γ + β (40 μM, group 1, subject 99-5): 7.72% | γ/γ + β mean (40 μM, group 1, subject 99-5 only): 7.72% | x increase (40 μM, group 2 (99-6, 99-7)): 1.5 x | γ/γ + β (40 μM, group 2, subject 99-6): 14.81% | γ/γ + β (40 μM, group 2, subject 99-7): 17.39% | γ/γ + β mean (40 μM, group 2, subjects 99-6, 99-7): 16.10% | x increase (60 μM, group 2 (99-6, 99-7)): 4.1 x | γ/γ + β (60 μM, group 2, subject 99-6): 37.65% | γ/γ + β (60 μM, group 2, subject 99-7): 51.04% | γ/γ + β mean (60 μM, group 2, subjects 99-6, 99-7): 44.35% | x increase (80 μM, group 2 (99-6, 99-7)): 4.7 x | γ/γ + β (80 μM, group 2, subject 99-6): 44.98% | γ/γ + β (80 μM, group 2, subject 99-7): 55.39% | γ/γ + β mean (80 μM, group 2, subjects 99-6, 99-7): 50.19% | x increase (100 μM, group 2 (99-6, 99-7)): 5.3 x | γ/γ + β (100 μM, group 2, subject 99-6): 54.06% | γ/γ + β (100 μM, group 2, subject 99-7): 60.90% | γ/γ + β mean (100 μM, group 2, subjects 99-6, 99-7): 57.48%
